In data set [1] the test system is IL-6 secretion by astrocytes. Nature of the data set: IL-6 release caused by NMO-IgG in astrocytes (ELISA). Type of data set: cell-based, rat. The following applies: NMO-IgG 250 μg/mL, 24 h; for IL-6 inhibition rate, Mean: 5 μM. The method, then:
The compound was dissolved in DMSO to prepare a compound stock solution. The compound stock solution was then serially diluted in a gradient using DMSO to prepare a series of 1000× test compound solutions. These 1000× test compound solutions were further diluted at a ratio of 1:100 with cell culture medium to prepare a series of 10× test compound solutions. Finally, according to the experimental well plate loading design, a corresponding volume of 10× solution was added to each well, with two duplicate wells for each drug concentration. In the experiment, the test solution (i.e., 1× solution) had varying final concentrations of compound I, specifically 20, 2.222, 0.247, and 0.027 μM; the concentration of Meprednisone compound (i.e., 1× solution) was 30 μM; the concentration of BAY 11-7082 (i.e., 1× solution) was 5 μM; the final DMSO concentration in each well was 0.1%. DMSO without compound was added to blank control wells, with a final concentration of 0.1%.
1) Extraction and separation of primary astrocytes: A mixed glial cell culture medium was prepared from the cerebral cortex of 1-day-old newborn rats. After euthanizing the newborn rats, they were immersed in alcohol. Their skin was cut, the brains were removed, and the cerebral cortex was isolated. The tissues were then ground to remove the connective tissue, and the mixed glial cells were sieved through a 70 µm cell strainer. These cells were then seeded into a cell culture plate coated with poly-L-lysine. The culture medium was DMEM, containing 10% heat-inactivated fetal bovine serum, 100 U/mL penicillin, and […]. After about 12 days of in vitro culture, the cells reached confluence. Microglia, endothelial cells, and oligodendrocytes were removed from the mixed glial cells by vibratory shaking. […] 2) Culture of astrocytes: The isolated astrocytes were cultured in a 37° C., 5% CO2 incubator. The culture medium was changed every 3 to 4 days. The astrocytes could also be digested using trypsin (0.25%) and then frozen in liquid nitrogen for future use.
Human NMO-IgG was isolated from a sterile-filtered serum pool (AQP4-IgG-positive NMOSD) using a HiTrap Protein G-HP column (GE Healthcare). The serum samples were diluted at a ratio of 1:1 with binding buffer, and after packing the purification column with binding buffer, the serum sample was added. The column was subsequently washed with binding buffer again and the antibodies were eluted according to the instructions. Finally, the antibodies were concentrated on an Amicon Ultra-4 centrifugal filter (millipore) with a 10,000 MW cutoff. The concentrated immunoglobulin was filtered through a 0.22 µm filter. The protein concentration of the concentrate was determined using the BCA method and stored at −80° C. The total IgG extracted from the serum of NMOSD patients was NMO-IgG (containing AQP4-IgG), and the cells were stimulated at a protein concentration of 250 μg/mL during the experiment.
Astrocytes were cultured or revived until day 2 and then seeded into a 24-well plate at a density of 1.5×10^5 cells per well. The test compounds, including compound I, Meprednisone, and BAY11-7082, were pre-incubated with the cells for 30 minutes at the concentrations previously described. Subsequently, in each group, the cells continued to be stimulated with NMO-IgG at a final working concentration of 250 μg/mL for 24 hours to induce astrocyte damage. Normal human Control-IgG (CON-IgG) stimulation at a final working concentration of 250 μg/mL was used as a negative control.
After 24 hours of NMO-IgG stimulation of cells, the supernatant was collected. IL-6 levels were detected using an enzyme-linked immunosorbent assay (ELISA) following the instructions of the IL-6 ELISA kit (R&D Systems, USA, #RD6000B). The absorbance (OD values) of the samples in each group was measured, and the concentration of IL-6 in each experimental group was calculated through standard curve fitting. […]
For orientation: ELISA stands for enzyme-linked immunosorbent assay.

Data set [2] concerns rat primary astrocytes. Nature of the data set: Cell viability (CCK-8) in NMO-IgG induced astrocyte injury model. In kind it is cell-based. The conditions noted are these: NMO-IgG 250 μg/mL, 24 h.
The test system of data set [3] is mouse CCL5 secretion by BV-2 cell line. In words: CCL5 secretion by LPS/IFN-γ-activated BV-2 cells (ELISA). In kind it is cell-based. As for the experimental part: (§1) Step 1: BV-2 cells in the exponential growth phase were collected, and viable cells were counted using a Vi-Cell XR cell counter. The cell suspension was adjusted to an appropriate concentration with the culture medium. 160 μL of cell suspension was added to each well of a 96-well cell culture plate, resulting in a final cell concentration of 12,000 cells per well. The culture plate was incubated for 24 hours in a 37° C., 5% CO2 incubator.
(§2) Step 2: A 10 mM DMSO compound stock solution was diluted at a ratio of 1:4 using DMSO to prepare a series of 1000× test compound solutions. These 1000× test compound solutions were further diluted at a ratio of 1:100 using cell culture medium to prepare a series of 10× test compound solutions. Finally, the 96-well plate that had been plated with cells the day before was taken out. According to the experimental well plate loading design, 20 μL of the corresponding 10× solution was added to each well, with three duplicate wells for each drug concentration. The final concentrations of the test compounds used in the experiment (i.e., 1× solutions) have a range of 10, 2.5, 0.625, 0.156, 0.0391, 0.0098, and 0.0024 μM. The final DMSO concentration in each well was 0.1%.
(§3) After the compound was added, the 96-well plate was incubated for half an hour in the 37° C., 5% CO2 incubator.
After the pre-incubation was completed, 20 μL of culture medium containing 100 ng/mL LPS and 100 ng/mL IFN-γ (final concentrations of 10 ng/mL LPS and 10 ng/mL IFN-7) was added to each well to induce the activation of BV-2 cells. The culture plate was then incubated for 24 hours in the 37° C., 5% CO2 incubator. […]
(§4) Step 5 (NO and CCL5 detection): The CCL5 levels in the supernatant were detected using an ELISA kit (Mouse CCL5/RANTES DuoSet ELISA; R&D; DY478-05), following the instructions provided with the kit. The nitric oxide (NO) levels in the supernatant were detected using the Griess Reagent System (Promega; G2930), following the instructions provided with the kit.
(§5) Step 1: Firstly, the optical density values obtained from ELISA and Griess tests were used to plot a standard curve and calculate the absolute concentrations of each sample. The absolute concentration was then calibrated using the CTG fluorescence value corresponding to each sample to obtain the calibrated concentration. The formula for calculating the calibrated concentration was: calibrated concentration=absolute concentration/CTG fluorescence value of the same sample.
Step 2: Based on the calibrated concentration of each sample, the relative percentage of CCL5 or NO secretion (i.e., CCL5 production (%) or NO production (%)) at each test concentration relative to the blank (DMSO) group was calculated. […]

The subject of data set [4] is NO secretion by BV-2 cell line. Nature of the data set: NO secretion by LPS/IFN-γ-activated BV-2 cells (Griess Reagent System). Type of data set: cell-based, Mouse. The following applies: for IC50: Mus musculus, BV-2, 24 h co-incubation. The method, then: as §1, §2, §3
(§6) After the pre-incubation was completed, 20 μL of culture medium containing 100 ng/mL LPS and 100 ng/mL IFN-γ (final concentrations of 10 ng/mL LPS and 10 ng/mL IFN-7) was added to each well to induce the activation of BV-2 cells. The culture plate was then incubated for 24 hours in the 37° C., 5% CO2 incubator.
(§7) Step 3: After 24 hours of treatment with the compound, the culture plate was centrifuged at 1200 rpm for 5 minutes. The supernatant was pipetted into another plate, which was sealed with tinfoil and stored at −20° C. for future ELISA and Griess reagent system assays. The cell culture plate from which the supernatant had been removed was immediately used for cell proliferation assays using the CellTiter-Glo (CTG) method.
as §4, §5
Step 2: Based on the calibrated concentration of each sample, the relative percentage of CCL5 or NO secretion (i.e., CCL5 production (%) or NO production (%)) at each test concentration relative to the blank (DMSO) group was calculated. The formula for calculating the relative percentage was: relative percentage %=(calibrated concentration of the test concentration group)/(calibrated concentration of the blank group).
Step 3: Finally, the relative percentage of CCL5 secretion or the relative percentage of NO secretion was plotted against the logarithm of the compound concentration. […]

Data set [5] has as its system BV-2 cells. Nature of the data set: CTG cell proliferation assay, LPS/IFN-γ-activated BV-2 cells. In kind it is cell-based, Mouse. The method, then: as §1, §2, §3, §6, §7
Step 4: In the cell culture plate from which the supernatant had been removed, 100 μL of PBS was added to each well. According to the instructions of the CellTiter-Glo (CTG) kit, 50 μL of pre-melted and room-temperature balanced CTG solution was added to each well. The plate was then mixed for 2 minutes using a microplate shaker. After letting it stand at room temperature for 10 minutes, the fluorescence signal value was measured using an Envision 2104 plate reader.
Step 1: Using the CTG fluorescence signal values, the percentage of surviving cells (surviving cells %) at each test concentration relative to the blank (DMSO) group was calculated. The formula was: surviving cells %=fluorescence value of the test concentration group/fluorescence value of the blank group.
Step 2: the percentage of surviving cells was plotted against the logarithm of the compound concentration. Nonlinear regression was used to fit the curve, and the formula “log(inhibitor) vs. response—Variable slope” in the software GraphPad Prism 5 was employed to calculate the IC50 value.
Step 3: The formula for calculating the inhibition rate was: inh. (%)={fluorescence value of the blank group−fluorescence value of the test concentration group}/fluorescence value of the blank (DMSO) group.

[6] abbreviates: 24 h co-incubation, up to 10 μM.

Structures are written as SMILES. Read-outs that look alike come from different tables or passages of the source. Some results are limits rather than exact numbers.

As a reminder, the viability is a per cent measure of how many cells are alive, often set against a control. By IC50 is commonly meant the midpoint of a concentration-inhibition curve.

Take `Cc1ccc(S(=O)(=O)/C=C/C#N)cc1` [BAY 11-7082, BAY11-7082, reference compound]: the “IL-6 inhibition rate, Mean” value in data set [1] is reported as 104.2%; in data set [1] (listed as BAY compound), “approximately 104.2%”. The “Cell viability percentage, Mean” value in data set [2] (5 μM) is 39.5%.
As for `C[C@H]1C[C@H]2[C@@H]3CCC4=CC(=O)C=C[C@]4(C)[C@H]3C(=O)C[C@]2(C)[C@@]1(O)C(=O)CO` [Meprednisone, reference compound], in data set [1] (Rattus norvegicus, Astrocyte, 30 μM, read-out: IL-6 inhibition rate, Mean), the inhibition at 30 µM was around 74.8%. Besides, the viability at 30 µM in data set [2] (Rattus norvegicus, Astrocyte, 30 μM, read-out: Cell viability percentage, Mean) was 81.7%.
For the compound `CCc1cc(/C(C)=N/OCc2ccc(C3CCCCC3)c(C(F)(F)F)c2)ccc1CN1CC(C(=O)O)C1` [Siponimod, reference compound], the “Maximum inhibition rate on CCL5 secretion by BV-2” value in data set [3] (setting [6]) was 35.16%. Further, the IC50 in data set [3] (Mus musculus, BV-2, 24 h co-incubation) was above 10 µM; in data set [4] (read-out: IC50 on NO secretion by BV-2) it was above 10 µM; in data set [4] (read-out: IC50 on NO secretion by BV-2 (text of b102)), above 10 µM. Moreover, in data set [4] (setting [6]), the “Maximum inhibition rate on NO secretion by BV-2” value was determined as 7.71%. In addition, the “inhibitory effect on cell proliferation” value in data set [5] (24 h co-incubation with BV-2, highest test concentration 10 μM) is “no significant inhibitory effect on cell proliferation”. Moreover, in data set [5] (Mus musculus, BV-2, 24 h co-incubation, LPS/IFN-γ, highest concentration 10 μM, read-out: Maximum inhibition rate on BV-2 cell proliferation), the inhibition at up to 10 µM amounted to 4.44%.

The values above are taken from patent publication US20240238299A1, “USE OF PYRROLOPYRIMIDINE COMPOUND” (GUANGZHOU JOYO PHARMATECH CO., LTD, priority 2021, published 2024).
